In ChEMBL document CHEMBL1909602, “Design and synthesis of novel triazole antifungal derivatives by structure-based bioisosterism” (Eur J Med Chem, 2011):
≈ marks a conversion by molar mass, not a printed value.

Experiments:
[1] = system: Candida albicans; assay: Antifungal activity against Candida albicans Y0109 after 24 hrs by serial dilution method; assay type: functional; conditions: Y0109, 24 h
[2] = system: Cryptococcus neoformans; assay: Antifungal activity against Cryptococcus neoformans 32609 after 72 hrs by serial dilution method; assay type: functional; conditions: Cryptococcus neoformans, 32609, 72 h
[3] = system: Candida parapsilosis; assay: Antifungal activity against Candida parapsilosis ATCC 22019 after 24 hrs by serial dilution method; assay type: functional; conditions: Lodderomyces parapsilosis, ATCC 22019, 24 h
[4] = Hydrophobicity, Log P of the compound; assay type: physicochemical; conditions: octanol/water
[5] = system: Pichia kudriavzevii; assay: Antifungal activity against Candida krusei ATCC 6258 after 24 hrs by serial dilution method; assay type: functional; conditions: ATCC 6258, 24 h
[6] = system: Aspergillus fumigatus; assay: Antifungal activity against Aspergillus fumigatus 7544 after 7 days by serial dilution method; assay type: functional; conditions: Aspergillus fumigatus, 7544, 168 h
[7] = system: Candida tropicalis; assay: Antifungal activity against Candida tropicalis 087 after 24 hrs by serial dilution method; assay type: functional; conditions: Candida tropicalis, 087, 24 h

Row | SMILES | MIC80 [1] | MIC80 [2] | MIC80 [3] | logP [4] | MIC80 [5] | MIC80 [6] | MIC80 [7]
1 | CCOc1ccc(-n2cnn(CCCN3CCN(CC(O)(Cn4cncn4)c4ccc(F)cc4F)CC3)c2=O)cc1 (racemic) | 0.25 µg/mL (≈ 0.44 µM) | 8 µg/mL (≈ 14.1 µM) | 1 µg/mL (≈ 1.76 µM) | 2.25 | 1 µg/mL (≈ 1.76 µM) | > 64 µg/mL | 1 µg/mL (≈ 1.76 µM)
2 | OC(Cn1cncn1)(Cn1cncn1)c1ccc(F)cc1F [FLUCONAZOLE] | 0.25 µg/mL (≈ 0.816 µM) | 16 µg/mL (≈ 52.2 µM) | 1 µg/mL (≈ 3.27 µM) |  | 0.25 µg/mL (≈ 0.816 µM) | > 64 µg/mL | 0.0625 µg/mL (≈ 0.204 µM)
3 | Cc1cccc(-n2cnn(CCCN3CCN(CC(O)(Cn4cncn4)c4ccc(F)cc4F)CC3)c2=O)c1 (racemic) | 0.25 µg/mL (≈ 0.464 µM) | 8 µg/mL (≈ 14.9 µM) | 1 µg/mL (≈ 1.86 µM) | 2.28 | 1 µg/mL (≈ 1.86 µM) | 8 µg/mL (≈ 14.9 µM) | 0.25 µg/mL (≈ 0.464 µM)
4 | Cc1ccc(-n2cnn(CCCN3CCN(CC(O)(Cn4cncn4)c4ccc(F)cc4F)CC3)c2=O)cc1 (racemic) | 0.25 µg/mL (≈ 0.464 µM) | 8 µg/mL (≈ 14.9 µM) | 1 µg/mL (≈ 1.86 µM) | 2.28 | 1 µg/mL (≈ 1.86 µM) | > 64 µg/mL | 0.25 µg/mL (≈ 0.464 µM)
5 | Cc1ccc(-n2cnn(CCCN3CCN(CC(O)(Cn4cncn4)c4ccc(F)cc4F)CC3)c2=O)cc1C (racemic) | 0.25 µg/mL (≈ 0.452 µM) | 4 µg/mL (≈ 7.24 µM) | 0.25 µg/mL (≈ 0.452 µM) | 2.65 | 1 µg/mL (≈ 1.81 µM) | 8 µg/mL (≈ 14.5 µM) | 0.25 µg/mL (≈ 0.452 µM)
6 | O=c1n(-c2ccc(I)cc2)cnn1CCCN1CCN(CC(O)(Cn2cncn2)c2ccc(F)cc2F)CC1 (racemic) | 0.25 µg/mL (≈ 0.384 µM) | 4 µg/mL (≈ 6.15 µM) | 0.25 µg/mL (≈ 0.384 µM) | 2.57 | 0.25 µg/mL (≈ 0.384 µM) | 8 µg/mL (≈ 12.3 µM) | 0.25 µg/mL (≈ 0.384 µM)
7 | O=c1n(-c2ccccc2F)cnn1CCCN1CCN(CC(O)(Cn2cncn2)c2ccc(F)cc2F)CC1 (racemic) | 0.25 µg/mL (≈ 0.461 µM) | > 64 µg/mL | 1 µg/mL (≈ 1.84 µM) | 2.02 | > 64 µg/mL | > 64 µg/mL | 1 µg/mL (≈ 1.84 µM)
8 | O=c1n(-c2ccc(Cl)cc2)cnn1CCCN1CCN(CC(O)(Cn2cncn2)c2ccc(F)cc2F)CC1 (racemic) | 0.0625 µg/mL (≈ 0.112 µM) | 4 µg/mL (≈ 7.16 µM) | 0.25 µg/mL (≈ 0.447 µM) | 2.54 | 0.25 µg/mL (≈ 0.447 µM) | 8 µg/mL (≈ 14.3 µM) | 0.25 µg/mL (≈ 0.447 µM)
9 | O=c1n(-c2ccc(F)cc2)cnn1CCCN1CCN(CC(O)(Cn2cncn2)c2ccc(F)cc2F)CC1 (racemic) | 0.25 µg/mL (≈ 0.461 µM) | > 64 µg/mL | 1 µg/mL (≈ 1.84 µM) | 2.02 | > 64 µg/mL | > 64 µg/mL | 0.25 µg/mL (≈ 0.461 µM)
10 | Cc1ccc(-n2cnn(CCCN3CCN(CC(O)(Cn4cncn4)c4ccc(F)cc4F)CC3)c2=O)cc1[N+](=O)[O-] (racemic) | 0.25 µg/mL (≈ 0.428 µM) | 16 µg/mL (≈ 27.4 µM) | 1 µg/mL (≈ 1.71 µM) | 2.11 | > 64 µg/mL | > 64 µg/mL | 0.25 µg/mL (≈ 0.428 µM)
11 | O=c1n(-c2ccc(Br)cc2)cnn1CCCN1CCN(CC(O)(Cn2cncn2)c2ccc(F)cc2F)CC1 (racemic) | 0.25 µg/mL (≈ 0.414 µM) | 4 µg/mL (≈ 6.63 µM) | 0.25 µg/mL (≈ 0.414 µM) | 2.61 | 1 µg/mL (≈ 1.66 µM) | 8 µg/mL (≈ 13.3 µM) | 0.25 µg/mL (≈ 0.414 µM)
12 | O=c1n(-c2ccc(F)c(Cl)c2)cnn1CCCN1CCN(CC(O)(Cn2cncn2)c2ccc(F)cc2F)CC1 (racemic) | 0.0625 µg/mL (≈ 0.108 µM) | 1 µg/mL (≈ 1.73 µM) | 0.25 µg/mL (≈ 0.433 µM) | 2.65 | 0.25 µg/mL (≈ 0.433 µM) | 4 µg/mL (≈ 6.93 µM) | 0.0625 µg/mL (≈ 0.108 µM)
13 | O=c1n(-c2ccccc2)cnn1CCCN1CCN(CC(O)(Cn2cncn2)c2ccc(F)cc2F)CC1 (racemic) | 0.25 µg/mL (≈ 0.477 µM) | 8 µg/mL (≈ 15.3 µM) | 1 µg/mL (≈ 1.91 µM) | 1.92 | 1 µg/mL (≈ 1.91 µM) | > 64 µg/mL | 1 µg/mL (≈ 1.91 µM)
14 | Cc1cccc(C)c1-n1cnn(CCCN2CCN(CC(O)(Cn3cncn3)c3ccc(F)cc3F)CC2)c1=O (racemic) | 1 µg/mL (≈ 1.81 µM) | > 64 µg/mL | 4 µg/mL (≈ 7.24 µM) | 2.65 | 1 µg/mL (≈ 1.81 µM) | > 64 µg/mL | 0.25 µg/mL (≈ 0.452 µM)
15 | Cc1ccc(C)c(-n2cnn(CCCN3CCN(CC(O)(Cn4cncn4)c4ccc(F)cc4F)CC3)c2=O)c1 (racemic) | 0.25 µg/mL (≈ 0.452 µM) | 8 µg/mL (≈ 14.5 µM) | 1 µg/mL (≈ 1.81 µM) | 2.65 | 1 µg/mL (≈ 1.81 µM) | > 64 µg/mL | 0.25 µg/mL (≈ 0.452 µM)
16 | O=c1n(-c2ccc(Cl)c(Cl)c2)cnn1CCCN1CCN(CC(O)(Cn2cncn2)c2ccc(F)cc2F)CC1 (racemic) | 0.0625 µg/mL (≈ 0.105 µM) | 1 µg/mL (≈ 1.69 µM) | 0.25 µg/mL (≈ 0.421 µM) | 3.17 | 0.25 µg/mL (≈ 0.421 µM) | 4 µg/mL (≈ 6.74 µM) | 0.0625 µg/mL (≈ 0.105 µM)
17 | Cc1cc(C)cc(-n2cnn(CCCN3CCN(CC(O)(Cn4cncn4)c4ccc(F)cc4F)CC3)c2=O)c1 (racemic) | 0.25 µg/mL (≈ 0.452 µM) | 4 µg/mL (≈ 7.24 µM) | 1 µg/mL (≈ 1.81 µM) | 2.65 | 1 µg/mL (≈ 1.81 µM) | 8 µg/mL (≈ 14.5 µM) | 0.25 µg/mL (≈ 0.452 µM)
18 | CC(C)(C)c1ccc(-n2cnn(CCCN3CCN(CC(O)(Cn4cncn4)c4ccc(F)cc4F)CC3)c2=O)cc1 (racemic) | 0.25 µg/mL (≈ 0.431 µM) | 1 µg/mL (≈ 1.72 µM) | 0.25 µg/mL (≈ 0.431 µM) | 3.59 | 0.25 µg/mL (≈ 0.431 µM) | 1 µg/mL (≈ 1.72 µM) | 0.25 µg/mL (≈ 0.431 µM)
19 | O=c1n(-c2cccc(Cl)c2)cnn1CCCN1CCN(CC(O)(Cn2cncn2)c2ccc(F)cc2F)CC1 (racemic) | 0.0625 µg/mL (≈ 0.112 µM) | 4 µg/mL (≈ 7.16 µM) | 0.25 µg/mL (≈ 0.447 µM) | 2.54 | > 64 µg/mL | 16 µg/mL (≈ 28.6 µM) | 0.0625 µg/mL (≈ 0.112 µM)
20 | Cc1ccc(-n2cnn(CCCN3CCN(CC(O)(Cn4cncn4)c4ccc(F)cc4F)CC3)c2=O)c(C)c1 (racemic) | 1 µg/mL (≈ 1.81 µM) | 8 µg/mL (≈ 14.5 µM) | 1 µg/mL (≈ 1.81 µM) | 2.65 | 1 µg/mL (≈ 1.81 µM) | > 64 µg/mL | 1 µg/mL (≈ 1.81 µM)
21 | Cc1ccc(-n2cnn(CCCN3CCN(CC(O)(Cn4cncn4)c4ccc(F)cc4F)CC3)c2=O)cc1Cl (racemic) | 0.0625 µg/mL (≈ 0.109 µM) | 1 µg/mL (≈ 1.75 µM) | 0.25 µg/mL (≈ 0.436 µM) | 2.91 | 0.25 µg/mL (≈ 0.436 µM) | 4 µg/mL (≈ 6.98 µM) | 0.25 µg/mL (≈ 0.436 µM)
